Literature values as cited in patent publication US12349704B2, “High quality cultured meat, compositions and methods for producing same” (ALEPH FARMS LTD., priority 2018, dated 2025).

Columns and labels:
[1] = dietary or formulated lycopene
[2] = not given; remark: listed apart in the source

In the case of `CC1=C(/C=C/C(C)=C/C=C/C(C)=C/C=C/C=C(C)/C=C/C=C(C)/C=C/C2=C(C)CCCC2(C)C)C(C)(C)CCC1` [beta-carotene], the “daily intake that may lead to hypercarotenemia (yellowish coloration of the skin, harmless and reversible)” value is listed as greater than 30 mg.
In the case of `CC(C)=CCC/C(C)=C/C=C/C(C)=C/C=C/C(C)=C/C=C/C=C(C)/C=C/C=C(C)/C=C/C=C(\C)CCC=C(C)C` [lycopene], the “intake levels at which no adverse effects were observed” value [1] is listed as “up to 3 g/(kg*d)”.
In the case of `NCC(=O)[O-].NCC(=O)[O-].[Fe+2]` [Ferrous bisglycinate], the “tolerability of dietary iron supplementation” value ([2]; approximately 15 to 120 mg iron/day, iron-deficient young children, adult males, pregnant and non-pregnant females) is given as “well tolerated” and the “adverse effects in field trials of iron fortification of foods” value ([2]; between 2 and 23 mg/day of supplemental dietary iron) is given as “without any reports of adverse effects”.
